Test results as given in patent EP4660185A1, “NAV1.7- AND/OR NAV1.8-INHIBITING AMIDES, PROCESSES FOR THE PREPARATION THEREOF, COMPOSITIONS, USES, METHODS FOR TREATMENT USING SAME, AND KITS” (Eurofarma Laboratórios S.A., priority 2023, dated 2024).

Key:
[1] = biological target: T1, human sodium channels Nav 1.8 (Homo sapiens, UniProt Q9Y5Y9); assay: Automated whole-cell voltage-clamp (ScreenPatch 384P) sodium current block, Nav 1.8; format: cell-based; conditions: CHO cells stably expressing human Nav 1.8; holding -100 mV, inactivation step -40 mV for 8 seconds, test step 10 mV (TP1A); exposure at least five minutes, room temperature; mean where tested in two or more assays; read-out: Nav1.8 IC50
T1 construct: expressed in transfected cells
Protocol: (§1) Biological assays were performed on Chinese hamster ovary (CHO) cells that express human sodium channels Nav 1.8 or Nav 1.7 in a stable manner.
(§2) The experimental protocol voltage-clamp using the whole cell configuration was established on the automated ScreenPatch® 384P platform (SP384PE, Nanion Technologies, Livingston, NJ) and the results were recorded with a Nanion 384-well Patch Clamp chip (NPC) (Nanion Technologies, Livingston, NJ).
(§3) Compounds of Formula Ia and Formula Ib were diluted in eight concentrations in the extracellular solution composed of saline solution, buffered with HEPES (mM): NaCl, 137; KCl, 4; CaCl2, 3,8; MgCl2, 1; HEPES, 10; Glucose, 10; pH 7.4. The […], 50; CsF, 90; MgCl2, 5; EGTA, 5; HEPES, 10; pH 7.2. The duration of exposure of each compound with cells expressing Nav 1.7 or Nav 1.8 was at least five minutes, and the assays were performed at room temperature.
(§4) The measurements of the sodium currents of Nav 1.8 and Nav 1.7 were obtained using the voltage protocol described below: A holding voltage of -100 mV was established followed by an inactivation voltage step at -40 mV for 8 seconds, followed by a step of -100 mV for 20 ms, followed by a 20 ms step for 10 mV for Nav 1.8 or 0 mV for Nav 1.7 (TP1A) before returning to the holding voltage of -100 mV.
(§5) The protocol was repeated at a frequency of 0.05 Hz and the amplitude of the current was quantified throughout the recording of the TP1A phase. The variation in the amplitude of the peak current was evaluated according to the formula described below, after exposing the cells expressing the channels to each concentration of the different compounds: % Block = (1−(ITP1A,molecule/ITP1A,basal)×100%, [formula] wherein ITP1A,basal and ITP1A,molecule represent the peaks of sodium current input into TP1A before exposure to the compound and in the presence of the compound, respectively.
(§6) Data were obtained by nonlinear regression (nonlinear least squares) with XLfit for Excel (Microsoft, Redmond, WA).
(§7) The compounds were tested in at least one assay to obtain the value of CI50. For compounds that were tested in two or more assays, the results are described as the mean of the CI50 values.

[2] = biological target: T2, human sodium channels Nav 1.7 (Homo sapiens, UniProt Q15858); assay: Automated whole-cell voltage-clamp (ScreenPatch 384P) sodium current block, Nav 1.7; format: cell-based; conditions: CHO cells stably expressing human Nav 1.7; holding -100 mV, inactivation step -40 mV for 8 seconds, test step 0 mV (TP1A); exposure at least five minutes, room temperature; mean where tested in two or more assays; read-out: Nav1.7 IC50
T2 construct: expressed in transfected cells
Protocol: as §1, §2, §3, §4, §5, §6, §7

T2 sequence (Q15858 whole entry): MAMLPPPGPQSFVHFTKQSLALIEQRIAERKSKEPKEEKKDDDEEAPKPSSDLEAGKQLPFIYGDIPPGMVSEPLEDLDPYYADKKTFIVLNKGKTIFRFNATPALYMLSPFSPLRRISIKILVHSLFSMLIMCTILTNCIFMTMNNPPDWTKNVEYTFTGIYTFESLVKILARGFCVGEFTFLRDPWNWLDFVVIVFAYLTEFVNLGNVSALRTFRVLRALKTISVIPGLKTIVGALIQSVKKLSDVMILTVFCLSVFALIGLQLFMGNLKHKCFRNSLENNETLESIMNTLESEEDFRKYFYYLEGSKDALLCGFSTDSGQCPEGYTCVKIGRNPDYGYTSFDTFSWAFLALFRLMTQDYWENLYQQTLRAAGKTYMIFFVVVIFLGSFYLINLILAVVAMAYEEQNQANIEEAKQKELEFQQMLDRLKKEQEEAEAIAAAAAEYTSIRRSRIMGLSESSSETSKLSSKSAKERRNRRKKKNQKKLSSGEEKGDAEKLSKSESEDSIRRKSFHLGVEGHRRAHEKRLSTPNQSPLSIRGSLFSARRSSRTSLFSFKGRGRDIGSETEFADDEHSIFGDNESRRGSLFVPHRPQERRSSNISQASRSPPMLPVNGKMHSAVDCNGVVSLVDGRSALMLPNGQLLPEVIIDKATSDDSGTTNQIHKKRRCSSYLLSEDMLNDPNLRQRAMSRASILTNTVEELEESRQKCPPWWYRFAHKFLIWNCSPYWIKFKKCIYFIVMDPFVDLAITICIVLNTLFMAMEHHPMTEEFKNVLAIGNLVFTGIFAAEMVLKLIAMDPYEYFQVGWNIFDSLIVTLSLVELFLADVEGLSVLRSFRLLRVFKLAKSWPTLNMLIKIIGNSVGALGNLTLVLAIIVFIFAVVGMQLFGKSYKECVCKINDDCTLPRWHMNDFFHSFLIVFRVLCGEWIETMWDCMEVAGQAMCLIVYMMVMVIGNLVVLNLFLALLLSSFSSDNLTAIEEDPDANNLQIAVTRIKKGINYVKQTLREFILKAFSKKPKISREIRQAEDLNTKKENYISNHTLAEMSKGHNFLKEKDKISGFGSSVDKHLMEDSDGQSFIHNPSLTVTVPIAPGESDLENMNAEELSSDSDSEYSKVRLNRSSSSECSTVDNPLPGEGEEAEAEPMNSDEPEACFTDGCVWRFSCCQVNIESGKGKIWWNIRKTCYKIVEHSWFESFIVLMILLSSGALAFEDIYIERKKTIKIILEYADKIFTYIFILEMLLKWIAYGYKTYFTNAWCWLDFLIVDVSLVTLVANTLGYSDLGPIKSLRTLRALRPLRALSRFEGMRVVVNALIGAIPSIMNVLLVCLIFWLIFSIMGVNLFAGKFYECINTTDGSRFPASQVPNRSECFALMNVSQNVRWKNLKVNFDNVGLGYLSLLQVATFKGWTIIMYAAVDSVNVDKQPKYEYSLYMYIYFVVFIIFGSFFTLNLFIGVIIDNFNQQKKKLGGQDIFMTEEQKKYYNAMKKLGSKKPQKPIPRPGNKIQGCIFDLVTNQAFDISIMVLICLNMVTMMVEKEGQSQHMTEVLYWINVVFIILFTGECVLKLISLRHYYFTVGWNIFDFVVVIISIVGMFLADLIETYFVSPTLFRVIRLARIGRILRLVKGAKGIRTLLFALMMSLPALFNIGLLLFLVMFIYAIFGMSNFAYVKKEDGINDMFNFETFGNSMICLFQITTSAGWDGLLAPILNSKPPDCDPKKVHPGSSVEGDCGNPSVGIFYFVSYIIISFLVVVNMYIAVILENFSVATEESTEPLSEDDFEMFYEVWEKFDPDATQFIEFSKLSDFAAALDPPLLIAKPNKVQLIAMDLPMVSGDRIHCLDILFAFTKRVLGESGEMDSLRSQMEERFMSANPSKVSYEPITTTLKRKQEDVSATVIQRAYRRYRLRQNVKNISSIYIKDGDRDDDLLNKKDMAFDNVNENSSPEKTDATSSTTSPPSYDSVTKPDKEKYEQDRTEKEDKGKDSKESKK
T1 sequence (Q9Y5Y9 whole entry): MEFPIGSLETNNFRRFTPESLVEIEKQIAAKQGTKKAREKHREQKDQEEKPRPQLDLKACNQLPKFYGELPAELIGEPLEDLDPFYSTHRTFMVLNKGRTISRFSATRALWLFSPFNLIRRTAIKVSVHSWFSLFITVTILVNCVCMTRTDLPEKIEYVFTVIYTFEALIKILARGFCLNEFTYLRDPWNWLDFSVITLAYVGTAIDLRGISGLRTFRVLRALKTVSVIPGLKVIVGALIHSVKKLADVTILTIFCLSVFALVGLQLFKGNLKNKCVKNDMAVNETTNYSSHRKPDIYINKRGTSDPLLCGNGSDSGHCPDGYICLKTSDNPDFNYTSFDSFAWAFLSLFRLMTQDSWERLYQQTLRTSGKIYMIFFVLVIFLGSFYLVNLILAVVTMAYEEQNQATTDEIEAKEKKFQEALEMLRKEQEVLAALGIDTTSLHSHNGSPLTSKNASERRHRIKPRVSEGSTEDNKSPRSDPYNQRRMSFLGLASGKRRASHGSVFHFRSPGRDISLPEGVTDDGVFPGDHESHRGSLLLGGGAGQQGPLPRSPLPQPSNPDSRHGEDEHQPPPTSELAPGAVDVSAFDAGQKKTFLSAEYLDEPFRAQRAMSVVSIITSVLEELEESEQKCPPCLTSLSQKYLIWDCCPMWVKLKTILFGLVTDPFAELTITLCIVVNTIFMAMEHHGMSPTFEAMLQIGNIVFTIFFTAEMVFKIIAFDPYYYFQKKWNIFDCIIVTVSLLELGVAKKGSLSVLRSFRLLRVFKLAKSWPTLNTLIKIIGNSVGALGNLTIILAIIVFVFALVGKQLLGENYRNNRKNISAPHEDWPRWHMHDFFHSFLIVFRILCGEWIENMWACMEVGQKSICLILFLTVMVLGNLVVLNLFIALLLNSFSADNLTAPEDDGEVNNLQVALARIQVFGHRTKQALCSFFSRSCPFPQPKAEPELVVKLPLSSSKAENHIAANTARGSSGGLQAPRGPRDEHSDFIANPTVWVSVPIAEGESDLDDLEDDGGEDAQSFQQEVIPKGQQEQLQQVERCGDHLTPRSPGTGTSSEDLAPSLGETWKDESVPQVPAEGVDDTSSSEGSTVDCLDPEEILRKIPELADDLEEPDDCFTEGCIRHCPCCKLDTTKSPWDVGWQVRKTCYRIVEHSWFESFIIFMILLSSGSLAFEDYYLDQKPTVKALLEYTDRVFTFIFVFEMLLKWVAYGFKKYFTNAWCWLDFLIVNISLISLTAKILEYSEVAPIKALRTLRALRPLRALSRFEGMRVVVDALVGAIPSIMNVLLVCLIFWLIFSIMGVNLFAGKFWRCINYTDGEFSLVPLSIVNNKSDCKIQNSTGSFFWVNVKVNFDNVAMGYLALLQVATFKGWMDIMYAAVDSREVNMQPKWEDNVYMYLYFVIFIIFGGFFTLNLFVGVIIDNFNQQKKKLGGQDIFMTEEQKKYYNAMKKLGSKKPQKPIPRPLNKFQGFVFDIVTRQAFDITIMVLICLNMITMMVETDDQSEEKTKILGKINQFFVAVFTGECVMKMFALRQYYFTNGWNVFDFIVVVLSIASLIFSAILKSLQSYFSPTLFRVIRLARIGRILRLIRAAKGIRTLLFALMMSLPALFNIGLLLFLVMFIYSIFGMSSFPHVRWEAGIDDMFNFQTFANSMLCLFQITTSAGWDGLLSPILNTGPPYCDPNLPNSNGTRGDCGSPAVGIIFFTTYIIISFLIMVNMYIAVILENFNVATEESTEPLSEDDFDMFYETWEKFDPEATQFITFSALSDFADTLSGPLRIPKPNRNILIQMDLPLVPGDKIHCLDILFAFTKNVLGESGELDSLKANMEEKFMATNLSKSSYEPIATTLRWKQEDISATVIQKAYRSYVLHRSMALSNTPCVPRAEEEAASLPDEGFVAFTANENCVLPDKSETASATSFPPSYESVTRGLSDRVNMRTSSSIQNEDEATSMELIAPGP

Row | Structure (SMILES) | IC50 [1] [nM] | IC50 [2] [nM]
1 | CCOc1ccc(-c2cncc(C(=O)NCCc3cc(OC)cnc3F)n2)cc1 [compound 16] | < 500 | > 1000
2 | CCOc1ccc(-c2cncc(C(=O)Nc3cc4c(F)ccc(OC)c4n3C)n2)cn1 [compound 70] | > 1000 | > 1000
3 | [2H]C([2H])([2H])Oc1ccc(-c2cncc(C(=O)NC[C@@H](O)c3cc(OC)cc(OC)c3)n2)cc1 [compound 93] | < 500 | > 1000
4 | COc1cc(CCNC(=O)c2cncc(-c3ccc(OC(F)F)nc3)n2)cc(OC)c1 [compound 29] | < 500 | 500 to 1000
5 | CCOc1ccc(-c2cncc(C(=O)NCc3cnc4ccc(OC)cn34)n2)cn1 [compound 86] | > 1000 | > 1000
6 | CCOc1ccc(-c2cncc(C(=O)NCCc3cc(OC)cnc3F)n2)cn1 [compound 34] | < 500 | 500 to 1000
7 | CCOc1ccc(-c2cc(C(=O)NCCc3cc(OC)cnc3F)cnn2)cn1 [compound 111] | > 1000 | > 1000
8 | CCOc1ccc(-c2cncc(C(=O)Nc3nc4c(F)ccc(OC)c4s3)n2)cn1 [compound 61] | > 1000 | > 1000
9 | CCOc1ccc(-c2cncc(C(=O)NCCc3cc(OC)cc(OC)c3)n2)c(C)c1 [compound 4] | < 500 | < 500
10 | CCOc1ccc(-c2cncc(C(=O)NCCc3cc(OC)cc(C(C)O)c3)n2)cn1 (stereo not shown) [compound 40] | > 1000 | > 1000
11 | CCOc1ccc(-c2cncc(C(=O)N[C@H]3CCc4c(OC)ccc(F)c4C3)n2)cn1 [compound 78] | < 500 | > 1000
12 | CCOc1ccc(-c2cc(C(=O)NCCc3cc(OC)cnc3F)ccn2)cc1 [compound 104] | > 1000 | > 1000
13 | CCOc1ccc(-c2cncc(C(=O)NC[C@@H](O)c3cc(OC)cc(OC)c3)n2)cc1 [compound 25] | > 1000 | > 1000
14 | CCOc1ccc(-c2cncc(C(=O)NC[C@H](N)c3cc(OC)cc(OC)c3)n2)cc1 [compound 26] | > 1000 | > 1000
15 | COc1cnc(F)c(CCNC(=O)c2cncc(-c3ccc(C(C)O)nc3)n2)c1 (stereo not shown) [compound 58] | > 1000 | > 1000
16 | CCOc1ccc(-c2cncc(C(=O)NCCc3cc(OC)cc(OC)c3)n2)cc1 [compound 10] | < 500 | 500 to 1000
17 | CCOc1ccc(-c2cncc(C(=O)Nc3cc4cccc(OC)c4[nH]3)n2)cn1 [compound 72] | > 1000 | > 1000
18 | CCOc1ccc(-c2cncc(C(=O)NCCc3cc(C(C)O)cnc3F)n2)cc1 (stereo not shown) [compound 14] | > 1000 | > 1000
19 | CCOc1ccc(-c2cncc(C(=O)Nc3nc4c(F)ccc(OC)c4[nH]3)n2)cn1 [compound 64] | > 1000 | > 1000
20 | CCOc1ccc(-c2cncc(C(=O)Nc3cc4c(F)ccc(OC)c4[nH]3)n2)cn1 [compound 69] | < 500 | > 1000
21 | CCOc1ccc(-c2ccnc(C(=O)NCCc3cc(OC)cnc3F)c2)cc1 [compound 105] | > 1000 | < 500
22 | [2H]C([2H])([2H])Oc1cc(OC([2H])([2H])[2H])cc([C@H](O)CNC(=O)c2cncc(-c3ccc(OC([2H])([2H])[2H])nc3)n2)c1 [compound 92] | > 1000 | > 1000
23 | COc1cnc(F)c(CCNC(=O)c2cncc(-c3ccc(C(C)O)cc3)n2)c1 (stereo not shown) [compound 59] | > 1000 | > 1000
24 | [2H]C([2H])([2H])Oc1cc(OC([2H])([2H])[2H])cc([C@H](O)CNC(=O)c2cncc(-c3ccc(OC(F)F)cc3)n2)c1 [compound 96] | < 500 | > 1000
25 | COc1cnc(F)c(CCNC(=O)c2cncc(-c3ccc(OC(F)F)nc3)n2)c1 [compound 51] | > 1000 | > 1000
26 | COc1cc(OC)cc([C@H](O)CNC(=O)c2cncc(-c3ccc(OC(F)F)cc3)n2)c1 [compound 54] | < 500 | > 1000
27 | CCOc1ccc(-c2nccc(C(=O)NCCc3cc(OC)cnc3F)n2)cn1 [compound 110] | > 1000 | > 1000
28 | CCOc1ccc(-c2cccc(C(=O)NCCc3cc(OC)cnc3F)n2)cc1 [compound 103] | > 1000 | > 1000

Row | Structure (SMILES) | IC50 [1] [nM] | IC50 [2] [nM]
29 | CCOc1ccc(-c2cncc(C(=O)NCCc3cc(C(C)O)ccc3F)n2)cc1 (stereo not shown) [compound 15] | < 500 | > 1000
30 | COc1ccc(-c2cncc(C(=O)NCCc3cc(OC)cc(OC)c3)n2)cc1 [compound 49] | > 1000 | > 1000
31 | CCOc1ccc(-c2cncc(C(=O)Nc3cc4c(OC)ccc(F)c4n3C)n2)cn1 [compound 75] | > 1000 | > 1000
32 | CCOc1ccc(-c2cncc(C(=O)Nc3cc4c(OC)ccc(F)c4[nH]3)n2)cn1 [compound 74] | < 500 | 500 to 1000
33 | CCOc1ccc(-c2cncc(C(=O)NCCc3cc(OC)cc(C(C)O)c3)n2)cc1 (stereo not shown) [compound 12] | < 500 | > 1000
34 | CCOc1ccc(-c2cncc(C(=O)N[C@@H]3Cc4c(F)ccc(OC)c4C3)n2)cn1 [compound 81] | < 500 | > 1000
35 | CCOc1ccc(-c2cncc(C(=O)Nc3nc4c(F)ncc(OC)c4o3)n2)cn1 [compound 67] | > 1000 | > 1000
36 | CCOc1ccc(-c2cncc(C(=O)NCCc3cc(OC)cc(OC)c3)n2)c(C)n1 [compound 31] | > 1000 | > 1000
37 | CCOc1ccc(-c2ccnc(C(=O)NCCc3cc(OC)cnc3F)n2)cc1 [compound 107] | 500 to 1000 | > 1000
38 | CCOc1ccc(-c2cncc(C(=O)N[C@H]3Cc4c(F)ccc(OC)c4C3)n2)cn1 [compound 82] | 500 to 1000 | > 1000
39 | COc1ccc(-c2cncc(C(=O)NCCc3cc(OC)cnc3F)n2)cc1 [compound 52] | < 500 | > 1000
40 | [2H]C([2H])([2H])Oc1ccc(-c2cncc(C(=O)NCCc3cc(OC)cc(OC)c3)n2)cc1 [compound 95] | < 500 | > 1000
41 | CCOc1ccc(-c2cnnc(C(=O)NCCc3cc(OC)cnc3F)c2)cc1 [compound 101] | > 1000 | > 1000
42 | CCOc1ccc(-c2cnnc(C(=O)NCCc3cc(OC)cnc3F)c2)cn1 [compound 112] | > 1000 | > 1000
43 | [2H]C([2H])([2H])Oc1cc(OC([2H])([2H])[2H])cc([C@H](O)CNC(=O)c2cncc(-c3ccc(OC(F)F)nc3)n2)c1 [compound 91] | < 500 | > 1000
44 | CCOc1ccc(-c2cncc(C(=O)NCc3ccc4ccc(OC)cn34)n2)cn1 [compound 80] | < 500 | > 1000
45 | CCOc1ccc(-c2ccnc(C(=O)NCCc3cc(OC)cnc3F)n2)cn1 [compound 115] | > 1000 | > 1000
46 | CCOc1ccc(-c2cncc(C(=O)NC[C@H](O)c3cc(OC)cc(OC)c3)n2)cc1 [compound 24] | > 1000 | > 1000
47 | CCOc1ccc(-c2cncc(C(=O)Nc3nc4c(OC)ccc(F)c4n3C)n2)cn1 [compound 66] | > 1000 | > 1000
48 | CCOc1ccc(-c2ccnc(C(=O)NCCc3cc(OC)cnc3F)c2)cn1 [compound 114] | > 1000 | > 1000
49 | COc1ccc(-c2cncc(C(=O)NCCc3ccccc3F)n2)cn1 [compound 48] | > 1000 | > 1000
50 | [2H]C([2H])([2H])Oc1ccc(-c2cncc(C(=O)NCCc3cc(OC)cnc3F)n2)cc1 [compound 94] | < 500 | > 1000
51 | CCOc1ccc(-c2cncc(C(=O)N[C@@H]3Cc4c(OC)cnc(F)c4C3)n2)cn1 [compound 84] | < 500 | > 1000
52 | CCOc1ccc(-c2nccc(C(=O)NCCc3cc(OC)cnc3F)n2)cc1 [compound 106] | > 1000 | > 1000
53 | COc1cc(CCNC(=O)c2cncc(-c3ccc(OC(F)F)cc3)n2)cc(OC)c1 [compound 2] | < 500 | 500 to 1000
54 | CCOc1ccc(-c2cncc(C(=O)NCCc3cc(OC)cc(OC)c3)n2)c(F)c1 [compound 3] | < 500 | > 1000
55 | [2H]C([2H])([2H])Oc1ccc(-c2cncc(C(=O)NC[C@@H](O)c3cc(OC([2H])([2H])[2H])cc(OC([2H])([2H])[2H])c3)n2)cc1 [compound 99] | 500 to 1000 | –
